From patent US3931262A, “Hydrophilic and difficultly volatile biocidal triorganotin compounds” (priority 1972, dated 1976)

What was measured:
[1] = in water / neutral medium / strongly acid or alkaline pH
[2] = tested on: Alternaria tenuis CBS 10426; test: Microbiological test; assay type: cell-based
Text: (§1) In the test for microbiocidal activity the compounds listed hereinbelow yielded the values indicated in the following Table: No. Compound __________________________________________________________________________ 1 (n--C4 H9)3 Sn--S--CH2 --CH2 --COO.(CH 2 --CH2 --O--n H(n~9) 2 (C6 H5)3 Sn--S--(CH2)3 --SO3.Na CH3 .vertline. 3 --Sn--S--CH2 --CH2 --COO--(CH2 --CH2 --O)n.H(n ~9) .vertline. CH3 4 (n--C4 H9)3 Sn--S--CH2 --COO.H.N(CH2 CH2 OH)3 5 (n--C4 H9)3 Sn--S--(CH2)2 --COO.H.N(CH2 CH2 OH)3 6 (n--C4 H9)3 Sn--S--CH2 --CO.N(CH2 CH2 OH)2 __________________________________________________________________________

[3] = tested on: Arizona paracolon 7:1.7,8; test: Microbiological test; assay type: cell-based
Text: as §1

[4] = tested on: Aspergillus flavus CBS 12662; test: Microbiological test; assay type: cell-based
Text: as §1

[5] = tested on: Aspergillus niger ATCC 6275; test: Microbiological test; assay type: cell-based
Text: as §1

[6] = tested on: Bacillus subtilis NCTC 6460; test: Microbiological test; assay type: cell-based
Text: as §1

Candida albicans CBS = test: Microbiological test; assay type: cell-based
Text: as §1

[7] = tested on: Chaetomium globosum CBS 14851; test: Microbiological test; assay type: cell-based
Text: as §1

Coniphora cerebella CBS = test: Microbiological test; assay type: cell-based
Text: as §1

[8] = tested on: Corynebacterium diphteroides FUR; test: Microbiological test; assay type: cell-based
Text: as §1

[9] = tested on: Escherichia coli NCTC 8195; test: Microbiological test; assay type: cell-based
Text: as §1

[10] = tested on: Escherichia coli RP 45410; test: Microbiological test; assay type: cell-based
Text: as §1

Fusarium oxysporum CBS = test: Microbiological test; assay type: cell-based
Text: as §1

Fusarium spec. DAP = test: Microbiological test; assay type: cell-based
Text: as §1

Hefe DAP = test: Microbiological test; assay type: cell-based
Text: as §1

Hefe rot DAP = test: Microbiological test; assay type: cell-based
Text: as §1

Lenzites abietina CBS = test: Microbiological test; assay type: cell-based
Text: as §1

[11] = tested on: Mycobacterium phlei CITM 61; test: Microbiological test; assay type: cell-based
Text: as §1

Paecilomyces varioti CBS = test: Microbiological test; assay type: cell-based
Text: as §1

[12] = tested on: Pasteurella multocida K753; test: Microbiological test; assay type: cell-based
Text: as §1

[13] = tested on: Penicillium expansum SMC 36; test: Microbiological test; assay type: cell-based
Text: as §1

[14] = tested on: Penicillium funiculosum CEB 329631; test: Microbiological test; assay type: cell-based
Text: as §1

Pilz schwarzlich DAP = test: Microbiological test; assay type: cell-based
Text: as §1

[15] = tested on: Polystictus versicolor EMPA61; test: Microbiological test; assay type: cell-based
Text: as §1

Poria vaporia CBS = test: Microbiological test; assay type: cell-based
Text: as §1

[16] = tested on: Pseudomonas fluorescens NCTC 4755; test: Microbiological test; assay type: cell-based
Text: as §1

[17] = tested on: Pullularia pullulans CBS 10767; test: Microbiological test; assay type: cell-based
Text: as §1

[18] = tested on: Salmonella gallinarum VBIB; test: Microbiological test; assay type: cell-based
Text: as §1

Salmonella pullorum VBIZ = test: Microbiological test; assay type: cell-based
Text: as §1

Sarcina ureae SMB 81 = test: Microbiological test; assay type: cell-based
Text: as §1

[19] = tested on: Stachybotrys atra CBS 32465; test: Microbiological test; assay type: cell-based
Text: as §1

[20] = tested on: Staphylococcus aureus SG 511 M6; test: Microbiological test; assay type: cell-based
Text: as §1

[21] = tested on: Staphylococcus aureus SG 511; test: Microbiological test; assay type: cell-based
Text: as §1

[22] = tested on: Streptococcus agalactiae M100; test: Microbiological test; assay type: cell-based
Text: as §1

[23] = tested on: Streptococcus faecalis NCTC 8619; test: Microbiological test; assay type: cell-based
Text: as §1

[24] = tested on: Trichoderma viride CEB 3334.2; test: Microbiological test; assay type: cell-based
Text: as §1

Trichophyton gypseum CBS = test: Microbiological test; assay type: cell-based
Text: as §1

[25] = tested on: Salmonella cholerae-suis VBIB; assay type: cell-based

In the case of CCC[CH2][Sn]([CH2]CCC)([CH2]CCC)[O]S(N)(=O)=O [tributyltin sulphaminate], the “stability to hydrolysis (in words)” value [1] is reported as “hydrolytically split off in water at once”.
With “S-tri-n-butyl-tin-β-mercaptopropionic acid polyethylene glycol ester [Compound 1]” the Activity range [2] was 30 ppm, the Activity range [3] was > 300 ppm and the Activity range [4] was 30 ppm. The Activity range [5] was 30 ppm, the Activity range [6] was 10 ppm and the Activity range (Candida albicans CBS) was 30 ppm. For the same compound, the Activity range [7] was 10 ppm, the Activity range (Coniphora cerebella CBS) was 10 ppm and the Activity range [8] was 10 ppm. The Activity range [9] was 10 ppm, the Activity range [10] was 10 ppm and the Activity range (Fusarium oxysporum CBS) was 30 ppm. The Activity range (Fusarium spec. DAP) was 30 ppm, the Activity range (Hefe DAP) was 10 ppm and the Activity range (Hefe rot DAP) was 10 ppm. The Activity range (Lenzites abietina CBS) was 10 ppm, the Activity range [11] was 3 ppm and the Activity range (Paecilomyces varioti CBS) was 30 ppm. For the same compound, the Activity range [12] was 10 ppm, the Activity range [13] was 30 ppm and the Activity range [14] was 30 ppm. It also gave an Activity range (Pilz schwarzlich DAP) of 10 ppm, an Activity range [15] of 100 ppm and an Activity range (Poria vaporia CBS) of 100 ppm. For the same compound, the Activity range [16] was 10 ppm, the Activity range [17] was 10 ppm and the Activity range [18] was > 300 ppm. The Activity range (Salmonella pullorum VBIZ) was > 300 ppm, the Activity range (Sarcina ureae SMB 81) was 10 ppm and the Activity range [19] was 10 ppm. The Activity range [20] was 10 ppm, the Activity range [21] was 10 ppm and the Activity range [22] was 3 ppm. For the same compound, the Activity range [23] was 10 ppm, the Activity range [24] was 100 ppm and the Activity range (Trichophyton gypseum CBS) was 30 ppm. The Activity range [25] was > 300 ppm.
